In ChEMBL document CHEMBL1130660, “Design and synthesis of a tetrahydropyran-based inhibitor of mammalian ribonucleotide reductase” (Bioorg Med Chem Lett, 1998):

Columns and labels:
Type in all cases: protein-complex assay
[1] = molecular target: T1, Ribonucleoside-diphosphate reductase RR1 (Homo sapiens) (UniProt P23921+Q7LG56+P31350); assay: Mammalian ribonucleotide reductase (mRR) inhibitory activity at a dose of 100 uM
[2] = molecular target: T1, Ribonucleoside-diphosphate reductase RR1 (Homo sapiens); assay: Mammalian ribonucleotide reductase (mRR) inhibitory activity at a dose of 500 uM
[3] = molecular target: T1, Ribonucleoside-diphosphate reductase RR1 (Homo sapiens); assay: Mammalian ribonucleotide reductase (mRR) inhibitory activity at a dose of 30 uM
[4] = molecular target: T1, Ribonucleoside-diphosphate reductase RR1 (Homo sapiens); assay: Mammalian ribonucleotide reductase (mRR) inhibitory activity at a dose of 0 uM
[5] = molecular target: T1, Ribonucleoside-diphosphate reductase RR1 (Homo sapiens); assay: Mammalian ribonucleotide reductase (mRR) inhibitory activity at a dose of 1000 uM
[6] = molecular target: T1, Ribonucleoside-diphosphate reductase RR1 (Homo sapiens); assay: Mammalian ribonucleotide reductase (mRR) inhibitory activity at a dose of 300 uM

Compound: CC(=O)N[C@@H](Cc1ccccc1)C(=O)NC[C@@H]1O[C@H]([C@@H](C)C(=O)N[C@@H](CC(=O)O)C(=O)N[C@@H](Cc2ccccc2)C(=O)O)[C@@H](OCC(=O)O)C[C@H]1OCC(C)C
- Residual RR activity [1]: 73%
- Residual RR activity [2]: 48%
- Residual RR activity [3]: 86%
- Residual RR activity [4]: 100%
- Residual RR activity [5]: 32%
- Residual RR activity [6]: 64%
